Reference: PMC7116955 (Biochimica et Biophysica Acta. General Subjects, 2005)
Entries after “also recorded” stand apart in the source; their conditions may differ.

Tests used:
Conditions in all cases: pH 7.4
Pep 1E [1] = type: binding, SARS-CoV
Pep 2B [2] = type: binding, SARS-CoV
Pep HR2 [3] = type: binding, SARS-CoV
Pep 1D = type: binding, SARS-CoV
Pep 1E [4] = type: binding, SARS-CoV; remark: listed apart in the source
Pep 2B [5] = type: binding, SARS-CoV; remark: listed apart in the source
Pep HR2 [6] = type: binding, SARS-CoV; remark: listed apart in the source
[7] = type: physicochemical
[8] = type: physicochemical; remark: listed apart in the source
[9] = type: physicochemical; remark: listed apart in the source

## WQEWEQKITALLEQAQIQQEKNEYELQKLDKWASLWEWF [Pep T-1249]
Pep 1E [1]
  fluorescence emission intensity variation on titration with Pep 1E: The same occurs for T-1249, although the results are not so evident
Pep 2B [2]
  fluorescence emission intensity variation on titration with Pep 2B: Fluorescence variation was not detected
Pep HR2 [3]
  fluorescence emission intensity variation on titration with Pep HR2: The same occurs for T-1249, although the results are not so evident
Pep 1D
  ANS fluorescence increase / interaction with Pep 1D, S peptide added: exhibit a larger variability; also recorded: low signal/noise ratios, preventing straightforward conclusions
Pep 1E [4]
  ANS fluorescence / interaction with Pep 1E: does not interact
Pep 2B [5]
  ANS fluorescence / interaction with Pep 2B: no evidence of interaction
Pep HR2 [6]
  ANS fluorescence / interaction with Pep HR2: no evidence of interaction
[7]
  self-aggregation by ANS fluorescence: self-aggregate
[8]
  interaction with membranes: most extensive interaction with membranes
[9]
  membrane partition in presence of Pep 1D: The same occurs
  membrane partition in presence of Pep 1E: The same occurs
  membrane partition in presence of Pep 2B: no difference occurs
  membrane partition in presence of Pep HR2: no difference occurs
